Laboratory results: ChEMBL document CHEMBL1201862, “PubChem BioAssay data set” (2004)
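Results reflect a 48-hour exposure of cells in 96-well plates to compound at five concentrations. GI50 marks 50% less growth.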 The source made the active and inactive calls. No stated cut-off is given here; in the data, active = GI50 up to about 1.1 µM and inactive = higher.

What was measured:
Test in all cases: NCI anticancer screen, dose series, 48 h
SNB-75 = tested on: SNB-75
HCT-15 = tested on: HCT-15
UACC-257 = tested on: UACC-257
OVCAR-8 = tested on: OVCAR-8
Malme-3M = tested on: Malme-3M
UACC-62 = tested on: UACC-62
A549 = tested on: A549
786-0 = tested on: 786-0
OVCAR-3 = tested on: OVCAR-3
MOLT-4 = tested on: MOLT-4
HCC 2998 = tested on: HCC 2998
CAKI-1 = tested on: CAKI-1
SW-620 = tested on: SW-620
U-251 = tested on: U-251
HT-29 = tested on: HT-29
TK-10 = tested on: TK-10
A498 = tested on: A498

Row | SMILES | GI50 (SNB-75) | GI50 (HCT-15) [µM] | GI50 (UACC-257) | GI50 (OVCAR-8) | GI50 (Malme-3M) | GI50 (UACC-62) | GI50 (A549) | GI50 (786-0) | GI50 (OVCAR-3) | GI50 (MOLT-4) | GI50 (HCC 2998) | GI50 (CAKI-1) | GI50 (SW-620) | GI50 (U-251) | GI50 (HT-29) | GI50 (TK-10) | GI50 (A498)
1 | O=C1c2ccccc2C(=O)c2[nH]c(Cc3ccc(F)cc3)nc21 | 20.9 µM (inactive) | 6.44 | 16.3 µM (inactive) | 17.4 µM (inactive) | 14.5 µM (inactive) | 15.5 µM (inactive) | 19.5 µM (inactive) | 16.9 µM (inactive) | 5.4 µM (inactive) | 24.8 µM (inactive) | 26.2 µM (inactive) | 19.7 µM (inactive) | 14.5 µM (inactive) | 22.6 µM (inactive) | 15.9 µM (inactive) | 34.1 µM (inactive) | –
2 | O=C1C(=O)N(C(=O)c2ccc(Cl)c(Cl)c2)c2ccc(Cl)cc21 | 31.8 µM (inactive) | – | – | > 100 µM (inactive) | – | > 100 µM (inactive) | > 100 µM (inactive) | > 100 µM (inactive) | 56.6 µM (inactive) | 43.9 µM (inactive) | – | – | 92 µM (inactive) | > 100 µM (inactive) | > 100 µM (inactive) | > 100 µM (inactive) | 19.4 µM (inactive)
3 | COC(=O)C(=O)C(C(=O)C(=O)Nc1cc(C)ccc1C)c1nc2ccc(C(=O)c3ccccc3)cc2nc1O (configuration not stated) | – | > 100 | > 100 µM (inactive) | > 100 µM (inactive) | > 100 µM (inactive) | 37.2 µM (inactive) | > 100 µM (inactive) | > 100 µM (inactive) | – | 48.9 µM (inactive) | > 100 µM (inactive) | 27.5 µM (inactive) | > 100 µM (inactive) | > 100 µM (inactive) | – | > 100 µM (inactive) | –
4 | C=C1CC(CC(=O)C(C)CC2CC(=C)C(=O)O2)OC1=O (configuration not stated) | 61.4 µM (inactive) | 18.1 | 16.4 µM (inactive) | 28 µM (inactive) | 14.5 µM (inactive) | 15.8 µM (inactive) | 52 µM (inactive) | 20.3 µM (inactive) | 17.7 µM (inactive) | 11.5 µM (inactive) | 37.1 µM (inactive) | – | 11 µM (inactive) | 71.4 µM (inactive) | 26.2 µM (inactive) | 19.1 µM (inactive) | 46.5 µM (inactive)
5 | O=C1NC(=O)C2C1c1[nH]c3ccccc3c1C1CCCC12 (configuration not stated) | 2.17 µM (inactive) | 1.49 | – | 4.93 µM (inactive) | 2.52 µM (inactive) | 5.47 µM (inactive) | 0.916 µM (active) | 5.02 µM (inactive) | 1.83 µM (inactive) | 2.44 µM (inactive) | 6.55 µM (inactive) | – | 0.951 µM (active) | 3.1 µM (inactive) | 2.07 µM (inactive) | 8.75 µM (inactive) | 4.76 µM (inactive)
6 | NC(=S)N/N=C/C(=C/Nc1ccccc1)[N+](=O)[O-] | > 100 µM (inactive) | > 100 | > 100 µM (inactive) | > 100 µM (inactive) | > 100 µM (inactive) | > 100 µM (inactive) | > 100 µM (inactive) | > 100 µM (inactive) | > 100 µM (inactive) | – | – | > 100 µM (inactive) | > 100 µM (inactive) | – | > 100 µM (inactive) | > 100 µM (inactive) | –
7 | COC(=O)C(C(=O)Cc1ccccc1[N+](=O)[O-])C(=O)OC | > 100 µM (inactive) | > 100 | > 100 µM (inactive) | > 100 µM (inactive) | > 100 µM (inactive) | > 100 µM (inactive) | > 100 µM (inactive) | > 100 µM (inactive) | > 100 µM (inactive) | > 100 µM (inactive) | > 100 µM (inactive) | > 100 µM (inactive) | > 100 µM (inactive) | – | > 100 µM (inactive) | > 100 µM (inactive) | –
8 | CC(C)(C)[C@H]1CO[C@]2(c3ccccc3)[C@@H]3C[C@@H]3C(=O)N12 | > 100 µM (inactive) | > 100 | > 100 µM (inactive) | > 100 µM (inactive) | > 100 µM (inactive) | > 100 µM (inactive) | > 100 µM (inactive) | > 100 µM (inactive) | > 100 µM (inactive) | – | > 100 µM (inactive) | > 100 µM (inactive) | > 100 µM (inactive) | > 100 µM (inactive) | > 100 µM (inactive) | > 100 µM (inactive) | –
9 | COC(=O)C1=CC2C(=O)OC1CC2C#N (configuration not stated) | > 100 µM (inactive) | – | > 100 µM (inactive) | > 100 µM (inactive) | > 100 µM (inactive) | > 100 µM (inactive) | > 100 µM (inactive) | > 100 µM (inactive) | > 100 µM (inactive) | > 100 µM (inactive) | > 100 µM (inactive) | > 100 µM (inactive) | > 100 µM (inactive) | > 100 µM (inactive) | > 100 µM (inactive) | > 100 µM (inactive) | > 100 µM (inactive)
10 | CC(C)NCCCC(C)Nc1ccnc2ccc3nn(C)nc3c12 (configuration not stated) | > 100 µM (inactive) | – | 74.5 µM (inactive) | 43.6 µM (inactive) | 63 µM (inactive) | > 100 µM (inactive) | 62.1 µM (inactive) | 44.2 µM (inactive) | – | 35 µM (inactive) | 57.9 µM (inactive) | 60.5 µM (inactive) | 38.5 µM (inactive) | > 100 µM (inactive) | 37.8 µM (inactive) | > 100 µM (inactive) | > 100 µM (inactive)
11 | O=c1[nH]cnc2c(COCCO)c[nH]c12 | > 100 µM (inactive) | > 100 | > 100 µM (inactive) | > 100 µM (inactive) | > 100 µM (inactive) | > 100 µM (inactive) | – | > 100 µM (inactive) | > 100 µM (inactive) | > 100 µM (inactive) | – | > 100 µM (inactive) | > 100 µM (inactive) | > 100 µM (inactive) | > 100 µM (inactive) | > 100 µM (inactive) | > 100 µM (inactive)
12 | CC(C)N1CCOC(c2ccc(O)c(O)c2)C1 (configuration not stated) | > 100 µM (inactive) | > 100 | > 100 µM (inactive) | > 100 µM (inactive) | > 100 µM (inactive) | > 100 µM (inactive) | > 100 µM (inactive) | > 100 µM (inactive) | > 100 µM (inactive) | > 100 µM (inactive) | > 100 µM (inactive) | > 100 µM (inactive) | > 100 µM (inactive) | – | > 100 µM (inactive) | > 100 µM (inactive) | –
13 | Cc1c(N)c(C#N)c2n(C)c3ncccc3n2c1=O | > 100 µM (inactive) | > 100 | > 100 µM (inactive) | > 100 µM (inactive) | > 100 µM (inactive) | > 100 µM (inactive) | > 100 µM (inactive) | > 100 µM (inactive) | > 100 µM (inactive) | > 100 µM (inactive) | > 100 µM (inactive) | > 100 µM (inactive) | > 100 µM (inactive) | > 100 µM (inactive) | > 100 µM (inactive) | > 100 µM (inactive) | –
14 | CN(C(=O)C12C3C4C1C1C2C3C41I)C(C)(C)C (configuration not stated) | > 65.6 µM (inactive) | 63.1 | > 88.5 µM (inactive) | > 100 µM (inactive) | > 95.9 µM (inactive) | > 83 µM (inactive) | > 100 µM (inactive) | > 100 µM (inactive) | 70.1 µM (inactive) | – | > 60 µM (inactive) | > 100 µM (inactive) | > 100 µM (inactive) | > 91.2 µM (inactive) | > 95.1 µM (inactive) | > 57.4 µM (inactive) | 53.8 µM (inactive)
15 | CCOC(=O)C1(C(=O)OCC)C(C(C)(C)C)=C(C)c2ccccc21 | 19.3 µM (inactive) | 13.7 | 12.2 µM (inactive) | 20.6 µM (inactive) | 11.4 µM (inactive) | 12.9 µM (inactive) | 18.1 µM (inactive) | 15.8 µM (inactive) | 11.9 µM (inactive) | 29.9 µM (inactive) | 16 µM (inactive) | – | 15.3 µM (inactive) | 15.3 µM (inactive) | 10.9 µM (inactive) | 30.1 µM (inactive) | –
16 | O=C(Nc1cc(Cl)cc(Cl)c1)/C(Cc1nc2ccccc2nc1O)=N/NC(=O)c1ccncc1 | – | > 100 | > 100 µM (inactive) | > 100 µM (inactive) | > 100 µM (inactive) | > 100 µM (inactive) | > 100 µM (inactive) | > 100 µM (inactive) | > 100 µM (inactive) | > 100 µM (inactive) | > 100 µM (inactive) | > 100 µM (inactive) | > 100 µM (inactive) | > 100 µM (inactive) | – | > 100 µM (inactive) | > 100 µM (inactive)
17 | N#CC(C(=O)/C(=N/NC(=O)c1ccccc1O)C(C#N)c1ccccc1)c1ccccc1 (configuration not stated) | > 100 µM (inactive) | > 100 | > 100 µM (inactive) | > 100 µM (inactive) | > 100 µM (inactive) | > 100 µM (inactive) | > 100 µM (inactive) | > 100 µM (inactive) | > 100 µM (inactive) | – | > 100 µM (inactive) | – | – | > 100 µM (inactive) | > 100 µM (inactive) | > 100 µM (inactive) | > 100 µM (inactive)
18 | NC(=S)N/N=C1/C(=O)N(c2ccc(Cl)cc2Cl)C(=O)C(=O)C1c1nc2ccccc2s1 (configuration not stated) | > 100 µM (inactive) | > 100 | > 100 µM (inactive) | > 100 µM (inactive) | > 100 µM (inactive) | > 100 µM (inactive) | – | > 100 µM (inactive) | > 100 µM (inactive) | 52.1 µM (inactive) | > 100 µM (inactive) | > 100 µM (inactive) | > 100 µM (inactive) | > 100 µM (inactive) | > 100 µM (inactive) | > 100 µM (inactive) | –
19 | CN(C)CC1CCC(CN(C)C)C1=NO (configuration not stated) | > 10 µM (inactive) | > 100 | > 100 µM (inactive) | > 100 µM (inactive) | > 100 µM (inactive) | > 100 µM (inactive) | > 100 µM (inactive) | > 100 µM (inactive) | > 100 µM (inactive) | > 100 µM (inactive) | > 100 µM (inactive) | > 100 µM (inactive) | > 100 µM (inactive) | – | > 100 µM (inactive) | > 100 µM (inactive) | –
